Earlier results in patent US20050226908A1, “Efficacious composition of a benzimidazole, an avermectin and praziquantel and related methods of use” (Akzo Nobel N.V., priority 2004, published 2005).

Test system: parasites
Conditions: fenbendazole alone, one time treatment at 100 or 150 mg/kg; JAVMA 180, 1:53 (1982) and Am J Vet Res 39, 11:1799 (1978)

COC(=O)Nc1nc2ccc(Sc3ccccc3)cc2[nH]1 [fenbendazole]
Efficacy of one time treatment: not efficacious
